# Source: ChEMBL document CHEMBL1139811 (Bioorg Med Chem Lett, 2007)
# Target: T1, Mycobacterial beta-ketoacyl-[acyl-carrier-protein] synthase III (Mycobacterium tuberculosis, UniProt P9WNG3)
# T1 sequence (P9WNG3 whole entry): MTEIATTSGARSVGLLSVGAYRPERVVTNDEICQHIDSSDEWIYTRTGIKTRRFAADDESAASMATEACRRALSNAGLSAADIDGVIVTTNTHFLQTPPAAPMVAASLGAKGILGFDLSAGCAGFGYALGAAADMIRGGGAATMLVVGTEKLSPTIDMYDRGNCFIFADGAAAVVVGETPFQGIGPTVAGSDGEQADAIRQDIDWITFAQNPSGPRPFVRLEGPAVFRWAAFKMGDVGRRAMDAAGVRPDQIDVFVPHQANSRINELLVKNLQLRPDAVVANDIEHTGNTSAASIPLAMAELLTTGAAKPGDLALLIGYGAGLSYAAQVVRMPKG
# Experiment: Inhibition of Mycobacterium tuberculosis FabH
row,SMILES,IC50
1,CC1=C(O)C(C)(Cc2ccc(-c3ccc(F)cc3)cc2)SC1=O (stereo not given),105 µM
2,CC1=C(O)C(C)(Cc2ccc(C(=O)c3ccccc3)cc2)SC1=O (stereo not given),283 µM
3,CC(=O)c1ccc(-c2ccc(CC3(C)SC(=O)C(C)=C3O)cc2)cc1 (stereo not given),54 µM
4,CC1=C(O)C(C)(Cc2ccc(-c3cc(F)cc(F)c3)cc2)SC1=O (stereo not given),135 µM
5,CC1=C(O)C(C)(Cc2ccc(-c3ccc(Cl)cc3)cc2)SC1=O (stereo not given),130 µM
6,CC1=C(O)C(C)(Cc2ccc(-c3ccc(C)s3)cc2)SC1=O (stereo not given),86 µM
7,CC(=O)c1cccc(-c2ccc(CC3(C)SC(=O)C(C)=C3O)cc2)c1 (stereo not given),150 µM
8,CC1=C(O)C(C)(Cc2ccc(-c3ccc(C(N)=O)cc3)cc2)SC1=O (stereo not given),4 µM
9,CC1=C(O)C(C)(Cc2ccc(-c3cccc(Cl)c3)cc2)SC1=O (stereo not given),156 µM
10,CC1=C(O)C(C)(Cc2ccc(-c3ccc(-c4ccccc4)cc3)cc2)SC1=O (stereo not given),68 µM
11,CC1=C(O)C(C)(Cc2ccc(-c3ccc(F)c(F)c3)cc2)SC1=O (stereo not given),207 µM
12,COC(=O)c1ccc(-c2ccc(CC3(C)SC(=O)C(C)=C3O)cc2)cc1 (stereo not given),3 µM
13,CC(=O)c1ccc(-c2ccc(CC3(C)SC(=O)C(C)=C3O)cc2)s1 (stereo not given),200 µM
14,CC1=C(O)C(C)(Cc2ccc(Oc3ccccc3)cc2)SC1=O (stereo not given),15 µM
15,CC1=C(O)C(C)(Cc2ccc(-c3ccc(C(=O)O)cc3)cc2)SC1=O (stereo not given),7 µM
